Source: paper PMC4912613, “A broad analysis of resistance development in the malaria parasite” (Nature Communications, 2016)

Key:
[1] = system: P. berghei exoerythrocytic forms; experiment: Liver-stage P. berghei hepatocyte invasion and development assay (luminescence, HepG2); assay type: cell-based, Plasmodium berghei; conditions: for EC50: Plasmodium berghei, HepG2, 48 h, P. berghei sporozoites, read-out: Liver Stage EC50; for EC50 fold shift compared to asexual stage: Liver Stage EC50: liver stage EC50 / 3D7 EC50
Text: (§1) As drugs that eliminate multiple stages of the parasite lifecycle will be critical components in global efforts to eliminate malaria, we were interested in knowing whether the compounds in our study had additional activities against either the liver and/or transmission stages of the parasite lifecycle. To determine this, we first evaluated the compounds in additional phenotypic assays. The first assay was a P. berghei hepatocyte invasion and development assay, which predicts causal prophylactic activity. Hepatocyte toxicity was additionally tested to identify false-positive activity in the liver stage due to host-cell toxicity. Assays were executed in duplicate using a 12-point EC50 curve at starting concentrations of 5 μM or 50 μM (Supplementary Table 1).
(§2) Liver-stage activity was determined by pretreating hepatic human cells (HepG2) for 2 h with compound in 1,536-well plates infected with freshly dissected P. berghei sporozoites. After 48 h of incubation, the viability of P. berghei exoerythrocytic forms was measured by luminescence reaction light output using BrightGlo (Promega). Varying levels of compound concentration were used (5 μM or 50 μM) due to the stock concentration supplied.

HepG2 = experiment: Hepatocyte toxicity; assay type: cell-based, human; conditions: for Hepatocyte Toxicity: HepG2; for EC50 fold shift compared to asexual stage: Hepatocyte Toxicity: hepatocyte toxicity / 3D7 EC50; for Liver Stage / Hepatocyte Toxicity: toxicity fold shift for the liver stage (hepatocyte toxicity vs liver stage EC50)
Text: as §1, §2

[2] = system: P. falciparum 3D7, Dd2, Dd2Δexo; experiment: In vitro evolution of compound-resistant lines (selection); assay type: cell-based, Plasmodium falciparum; conditions: for Time Length to Obtain Mutants: in vitro selection; for # of Resistant Strains Generated: resistant cultures out of three independent cultures; for EC50 fold shifts observed: selected parasites vs selection parent
Text: While we found an overall lack of pre-existing resistance, analysing the onset of resistance was critical, as compounds resulting in rapid resistance are not ideal for clinical development. We therefore sought to create drug-resistant parasites using a variety of different selection methods. We implemented either a high-dose method or a ramp-up/pulse method for our in vitro selections. Two of the 50 compounds—MMV028895 and MMV665824—were removed from the selection study during experimentation. […] Out of the remaining 48 compounds, resistant parasites were obtained for 23 (Supplementary Data 1). As each selection was performed in triplicate with three independent cultures, we succeeded in generating a total of 66 resistant cultures. Parasites resistant to MMV026596 were not obtained despite 100 days of selection, but the cultures acquired hypersensitivity to mefloquine with a 10-fold reduction in EC50 compared with its parental line, 3D7. For the remaining 24 compounds, acquisition of resistant parasites was unsuccessful despite numerous attempts over an extensive period of time.
Based on the compound speed of action and lab specialty, selections were conducted using a high-pressure intermittent selection method, a step-wise selection method, or a constant selection method. For high-pressure selections, ∼1–2 × 10^9 parasites were treated at a concentration of 3–10 × EC50 until parasites could not be seen by microscopy (4–10 days). Following treatment, compound pressure was removed and cultures were allowed to recover. Once healthy parasites were seen and parasitemia reached ∼2%, compound pressure was reinstated. For step-wise selections, ∼1 × 10^8 parasites were treated at a starting concentration resulting in a reduced growth rate of 50%. Cultures were examined daily by microscopy, increasing compound concentration in increments of 5–10% as needed to maintain a 50% reduced growth rate. Selections were carried out until cultures achieved a reproducible EC50 fold shift of >3 × . Finally, constant selections were conducted in a similar manner to the high-pressure intermittent method with the exception that compound pressure was never removed. Following successful selection, cultures were cloned out using a limiting dilution method as previously described. Selections were terminated after 200 days if resistance could not be obtained.

[3] = system: ATQ-R4 (cytb M133I and L144S, parent 3D7); experiment: Cross-resistance EC50 assay, ATQ-R4; assay type: cell-based, Plasmodium falciparum; conditions: Plasmodium falciparum, 3D7; SYBR green 72 hour assay; asynchronized parasites; 96-well or 1536-well format; ATQ-R4
Text: (§3) To evaluate potential overlapping activity against known antimalarial drug targets, we performed dose-response studies with each compound against our assembled set of drug-resistant lines and their corresponding parents, in an asexual blood stage proliferation assay (Table 1). Comparisons were made to the drug-sensitive strain 3D7 when a parent was unavailable (TM90C2A, W2 and Dd2). As laboratories conducted EC50 assays with different strains and protocols, all comparisons were made between assays from the same laboratory and under the same assay conditions. Compounds displaying >5-fold EC50 shifts relative to the parent or sensitive strain were flagged as having potentially non-novel targets. Average fold shifts per strain ranged from 0.82 to 2.34, with a median of 1.23 indicating there was not common resistance to any one resistant clone. No resistance patterns were observed when classifying the compounds based on chemical structure, but this was not surprising given the diversity of compounds chosen. On the other hand, given that these confirmed compounds were derived from larger unconfirmed hit lists to which some filtration criteria may have been applied (for example, elimination of obvious dihydrofolate reductase inhibitors[32]), some[10][11][12][13] pre-existing bias may exist in the set. […]
(§4) Alternatively, a SYBR Green-based proliferation approach was used for the 72-h assay, as previously described. Briefly, a culture of either synchronized or asynchronous parasitized RBCs (0.3% parasitemia and 4% haematocrit) in screening medium (identical to supplemented medium above except no serum was added) was exposed to serial drug dilutions. Plates were incubated at 37 °C and gassed with 93% N2, 4% CO2 and 3% O2 for 72 h. Following incubation, 10 × SYBR Green I (Invitrogen; supplied in 10,000 × concentration) in lysis buffer ([…], 5 mM EDTA, 0.16% Saponin wt per vol and 1.6% Triton X vol per vol) was added to the wells and the plates were incubated overnight at room temperature before plate reading. EC50 assays were repeated three times, taking the average EC50 value from each assay set, and removing any outliers using a single iteration of Grubbs' test, eliminating values with z-scores above the critical z-value (α=0.05). The raw EC50 values for synchronized parasites assayed in a 384-well format are listed in Supplementary Data 4. The raw EC50 values for asynchronous parasites assayed in a 96 or 1536-well format are listed in Supplementary Data 5.
(§5) EC50 values for each strain were compared with those of the corresponding parent strain to determine fold-shift changes and identify resistance. To minimize the cause variance between assays, all comparisons were conducted between strains assayed under identical conditions. A one-way ANOVA followed by a Dunnet's post-test was conducted in GraphPad Prism to identify significant changes between the parent and resistant strain.

[4] = system: GNF449-R2 (PfATP4 I203L and P990R, parent Dd2); experiment: Cross-resistance EC50 assay, GNF449-R2; assay type: cell-based; conditions: Plasmodium falciparum, SYBR green 72 hour assay, asynchronized parasites, 96-well or 1536-well format
Text: as §3, §4, §5

[5] = system: DHODH (E182D, parent 3D7); experiment: Cross-resistance EC50 assay, DHODH; assay type: cell-based; conditions: Plasmodium falciparum, SYBR green 72 hour assay, synchronized parasites, 384-well format
Text: as §3, §4, §5

hsp90 (D88Y, parent Dd2) = experiment: Cross-resistance EC50 assay, hsp90; assay type: cell-based; conditions: Plasmodium falciparum, SYBR green 72 hour assay, synchronized parasites, 384-well format
Text: as §3, §4, §5

## COc1ccc(NC(=O)N2CCCCN3[C@H](CN)[C@H](c4ccc(C#Cc5ccccc5)cc4)[C@@H]3C2)cc1 [BRD1095]
[1]
  EC50: 82.6 nM
  EC50 fold shift compared to asexual stage: Liver Stage EC50: 2.07
HepG2
  Hepatocyte Toxicity: > 50 µM
  EC50 fold shift compared to asexual stage: Hepatocyte Toxicity: > 1250
  Liver Stage / Hepatocyte Toxicity: > 605
[2]
  Time Length to Obtain Mutants: SHORT (0-50 days)
  # of Resistant Strains Generated: 3/3
  EC50 fold shifts observed: 4-100x
[3]
  EC50: 0.003 µM
[4]
  EC50: 0.00119 µM
[5]; 3D7, DHODH strain
  EC50: 23 nM
hsp90 (D88Y, parent Dd2); DD2, HSP90 strain
  EC50: 17 nM

## CCN(CC)CCn1c(=N)n(CC(O)c2ccc(Cl)c(Cl)c2)c2ccccc21.Cl (stereo not shown) [MMV000248]
[1]
  EC50: 5550 nM
  EC50 fold shift compared to asexual stage: Liver Stage EC50: 18.14
HepG2
  Hepatocyte Toxicity: 20.64 µM
  EC50 fold shift compared to asexual stage: Hepatocyte Toxicity: 67.45
  Liver Stage / Hepatocyte Toxicity: 3.72
[2]
  Time Length to Obtain Mutants: LONG (> 125 days)
  # of Resistant Strains Generated: 0/3
  EC50 fold shifts observed: no shift
[3]
  EC50: 0.177 µM
[4]
  EC50: 0.497 µM
[5]; strain DHODH (3D7 parent)
  EC50: 315 nM
hsp90 (D88Y, parent Dd2); strain HSP90 (Dd2 parent)
  EC50: 328 nM

## CCOc1cc2c(cc1OCC)C(c1cc(Cl)ccc1O)NCC2 (stereo not shown) [MMV000478]
[1]
  EC50: > 5000 nM
  EC50 fold shift compared to asexual stage: Liver Stage EC50: > 5
HepG2
  Hepatocyte Toxicity: > 5 µM
  EC50 fold shift compared to asexual stage: Hepatocyte Toxicity: > 5
[2]
  Time Length to Obtain Mutants: LONG (> 125 days)
  # of Resistant Strains Generated: 0/3
  EC50 fold shifts observed: no shift
[3]
  EC50: 0.833 µM
[4]
  EC50: 0.648 µM
[5]; strain DHODH (3D7 parent)
  EC50: 1450 nM
hsp90 (D88Y, parent Dd2); strain HSP90 (Dd2 parent)
  EC50: 1050 nM

## CCCOCc1cc(CN2CCN(c3cccc(Cl)c3)CC2)c(O)c2ncccc12 [MMV000787]
[1]
  EC50: 600 nM
HepG2
  Hepatocyte Toxicity: 2.43 µM
  Liver Stage / Hepatocyte Toxicity: 4.05
[2]
  Time Length to Obtain Mutants: LONG (> 125 days)
  # of Resistant Strains Generated: 0/3
  EC50 fold shifts observed: no shift
[3]
  EC50: 1.44 µM
[4]
  EC50: 1.7 µM
[5]; strain DHODH (3D7 parent)
  EC50: 467 nM
hsp90 (D88Y, parent Dd2); strain HSP90 (Dd2 parent)
  EC50: 476 nM

## CN1CCN(c2ccc(Nc3c4ccccc4nc4ccccc34)cc2)CC1 [MMV006172]
[1]
  EC50: 2060 nM
HepG2
  Hepatocyte Toxicity: 4.554 µM
  Liver Stage / Hepatocyte Toxicity: 2.21
[2]
  Time Length to Obtain Mutants: LONG (> 125 days)
  # of Resistant Strains Generated: 0/3
  EC50 fold shifts observed: no shift
[3]
  EC50: 0.217 µM
[4]
  EC50: 0.31 µM
[5]; strain DHODH (3D7 parent)
  EC50: 50 nM
hsp90 (D88Y, parent Dd2); strain HSP90 (Dd2 parent)
  EC50: 139 nM

## CCCN(CCC)CC(O)COc1ccccc1C(=O)Nc1ccccc1 (stereo not shown) [MMV006455]
[1]
  EC50: > 5000 nM
  EC50 fold shift compared to asexual stage: Liver Stage EC50: > 9.4
HepG2
  Hepatocyte Toxicity: > 5 µM
  EC50 fold shift compared to asexual stage: Hepatocyte Toxicity: > 9.4
[2]
  Time Length to Obtain Mutants: LONG (> 125 days)
  # of Resistant Strains Generated: 0/3
  EC50 fold shifts observed: no shift
[3]
  EC50: 0.674 µM
[4]
  EC50: 0.309 µM
[5]; strain DHODH (3D7 parent)
  EC50: 2830 nM
hsp90 (D88Y, parent Dd2); strain HSP90 (Dd2 parent)
  EC50: 2060 nM

## CN(C)CCCN(C)C(=O)C1Cc2cc(-c3ccccc3)ccc2N1S(=O)(=O)c1ccccc1 (stereo not shown) [MMV028895]
[3]
  EC50: 1.07 µM
[4]
  EC50: 2.76 µM
[5]; strain DHODH (3D7 parent)
  EC50: 81 nM
hsp90 (D88Y, parent Dd2); strain HSP90 (Dd2 parent)
  EC50: 332 nM

## c1cc(-c2cnc3ccc(-c4ccc(N5CCOCC5)cc4)nn23)ccn1 [MMV668311]
[1]
  EC50: 2250 nM
  EC50 fold shift compared to asexual stage: Liver Stage EC50: 46.90
HepG2
  Hepatocyte Toxicity: 5.119 µM
  EC50 fold shift compared to asexual stage: Hepatocyte Toxicity: 106.65
  Liver Stage / Hepatocyte Toxicity: 2.27
[2]
  Time Length to Obtain Mutants: LONG (> 125 days)
  # of Resistant Strains Generated: 0/3
  EC50 fold shifts observed: no shift
[3]
  EC50: 0.029 µM
[4]
  EC50: 0.03 µM
[5]; strain DHODH (3D7 parent)
  EC50: 42 nM

## COc1ccc2c3c([nH]c2c1)[C@H](CO)N(C(C)=O)CC31CCN(C(=O)Nc2ccccc2F)CC1 [MMV673482]
[2]
  Time Length to Obtain Mutants: SHORT (0-50 days)
  # of Resistant Strains Generated: 2/3
  EC50 fold shifts observed: 7-18x
[3]
  EC50: 0.027 µM
[4]
  EC50: 0.007 µM
[5]; 3D7, DHODH strain
  EC50: 151 nM
hsp90 (D88Y, parent Dd2); DD2, HSP90 strain
  EC50: 94 nM
